Where a name gives a salt, the structure may show the parent alone.

The data set can be described thus: DVS (Differential Vapor Sorption) measurements of hygroscopicity. It is filed as physicochemical. The note with it: salt forms of the compound of formula (Is). The text has this:
In an embodiment, the present invention is directed to a hydrochloride salt of the compound of formula (Is). In another embodiment of the present invention, the hydrochloride salt of the compound of formula (Is) is mono-hydrochloride or di-hydrochloride salt of the compound of formula (Is). In another embodiment of the present invention, the mono-hydrochloride and di-hydrochloride salts of the compound of formula (Is) are crystalline. DVS measurements completed on the mono-hydrochloride and di-hydrochloride salts of the compound of formula (Is) indicate that both of these salt forms are hygroscopic.

`Cc1cccc2cccc(CN3CCC4(CC3)C(=O)N(C[C@H](O)CN)CN4c3ccc(F)cc3)c12` [mono-hydrochloride, 3-(3-amino-2-(R)-hydroxy-propyl)-1-(4-fluoro-phenyl)-8-(8-methyl-naphthalen-1-ylmethyl)-1,3,8-triaza-spiro[4.5]decan-4-one]: the “hygroscopicity by DVS measurements” value is given as “hygroscopic”.

Source of the values: patent US20080176882A1, “SALTS OF 3-(3-AMINO-2-(R)-HYDROXY-PROPYL)-1-(4-FLUORO-PHENYL)-8-(8-METHYL-NAPHTHALEN-1-YLMETHYL)-1,3,8-TRIAZA-SPIRO[4.5]DECAN-4-ONE” (priority 2006, published 2008).
